Measurements as given in patent US8198317B2, “Methylenedioxy phenolic compounds and their use to treat disease” (The Ohio State University Research Foundation, priority 2008, dated 2012).

Columns and labels:
Assay type in all cases: in vivo, human
Patient = assay: Treatment of a patient with acute ST elevation myocardial infarction (Examples 13-15); conditions: 1.0 to 100 mg/kg intravenously
Description: A person presents with sudden chest pain typically radiating to the left arm or left side of the neck, shortness of breath, nausea and palpitation with vomiting and sweating. After being evaluated with an electrocardiogram (EKG, ECG), a chest X-ray and blood tests to detect elevations in cardiac markers (blood tests to detect heart muscle damage), they are diagnosed as suffering from acute ST elevation myocardial infarction. The patient is administered a composition comprising an effective amount of 3,4-methylenedioxy-6-nitrophenyl acetate (INV 75) (1.0 to 100 mg/kg) intravenously. The composition is optionally administered in conjunction with therapy such as thrombolytic drugs such as tissue plasminogen activator (tPA) or streptokinase and administration of aspirin, a drug to reduce the tendency of platelet aggregation, such as clopidogrel bisulfate, a statin, and/or heparin or a combination thereof, using dosages known to one of ordinary skill in the art. Patient reports improvement in the chest pain, shortness of breath and palpitations.
(§1) A person presents with sudden chest pain typically radiating to the left arm or left side of the neck, shortness of breath, nausea and palpitation with vomiting and sweating. After being evaluated with an electrocardiogram (EKG, ECG), a chest X-ray and blood tests to detect elevations in cardiac markers (blood tests to detect heart muscle damage), they are diagnosed as suffering from acute ST elevation myocardial infarction. The patient is administered a composition comprising an effective amount of 3,4-methylenedioxy-6-nitrophenyl acetate (INV 7465) (1.0 to 100 mg/kg) intravenously. […]
as §1, with “infarction.” for “infarction. The patient is administered a composition comprising an effective amount of 3,4-methylenedioxy-6-nitrophenyl acetate (INV 7465) (1.0 to 100 mg/kg) intravenously.”

Patients = assay: Treatment of patients with Type I and Type II diabetes (Example 24); conditions: diabetic patients, oral, 12 months
Description: Individuals with Type I and Type II diabetes are at risk for future cardiovascular events such as heart attacks, strokes and kidney disease. These individuals are on prevention treatments such as hypolipidemic drug therapy such as statins and anti-hypertensive agents such as ACE inhibitors. They are already receiving glycemia lowering strategies such as Insulin, PPARγ agents, Metformin or sulfonylurea therapy. They also will receive an acceptable dose of a composition comprising a compound of the present invention in an acceptable carrier orally chronically for durations in excess of 12 months. In one study, 3,4-Methylenedioxy 6-nitro phenyl lipoate (INV-7465) or 3,4-Methylenedioxy phenyl lipoate (INV-7065) are administered to these individuals. The patients undergo the following measurements: HbA1C to assess glycemic control, urinary microalbuminura, blood pressure and lipid measurements. At the end of 12 months of treatment, there is lowering of HbA1C and urinary microalbuminuria. There is an improvement in VLDL cholesterol and a decrease in triglycerides with any of these treatments [(3,4-methylenedioxy phenyl acetate (INV 73); 3,4-methylenedioxy-6-nitrophenol (INV 74); 3,4-methylenedioxy-6-nitrophenyl acetate (INV 75); 3,4-Methylenedioxy 6-nitro phenyl lipoate (INV-7465) or 3,4-Methylenedioxy phenyl lipoate (INV-7065)].

Humans [1] = assay: Prevention or delay of onset of atherosclerosis in humans (Example 23); conditions: 2 mg/kg to 50 mg/kg iv or im, one to six months
Description: Individuals with documented risk factors for atherosclerosis and having high plasma cholesterol levels have a ultrasound analysis of the coronary (IVUS), carotid (IMT) or popliteal arteries to establish a baseline measurement. A portion of these individuals are […] administered a composition comprising a compound of the present invention in an acceptable carrier at a dose of 2 mg/kg to 50 mg/kg intravenously (iv) or intramuscular (im) I to 3 times per week over a period of approximately one to six months. The following compounds are administered to these individuals: 3,4-methylenedioxy phenyl acetate (INV 73); 3,4-methylenedioxy-6-nitrophenol (INV 74); 3,4-methylenedioxy-6-nitrophenyl acetate (INV 75); 3,4-Methylenedioxy 6-nitro phenyl lipoate (INV-7465) or 3,4-Methylenedioxy phenyl lipoate (INV-7065). The other individuals receive the carrier alone. A new ultrasound analysis at the end of the treatment period indicates higher levels of plaque in the vessels of individuals receiving the carrier.

Humans [2] = assay: Treatment of established atherosclerosis in humans (Example 21); conditions: oral, in excess of 12 months
Description: Individuals with established atherosclerosis with evidence of plaque in the coronary arteries, carotid arteries or peripheral arteries are known to be at risk for future cardiovascular events such as heart attacks and strokes. These individuals are on treatments such as statins and anti-hypertensive agents such as ACE inhibitors, diuretics or calcium channel blockers. They also will receive an acceptable dose of a composition comprising a compound of the present invention in an acceptable carrier orally and chronically for durations in excess of 12 months. In one study, 3,4-methylenedioxy phenyl acetate (INV 73); 3,4-methylenedioxy-6-nitrophenol (INV 74); 3,4-methylenedioxy-6-nitrophenyl acetate (INV 75); 3,4-Methylenedioxy 6-nitro phenyl lipoate (INV-7465) or 3,4-Methylenedioxy phenyl lipoate (INV-7065) are administered to these individuals. A repeat IVUS measurement is made at the end of the treatment period to assess the effect of the infusion of the composition on coronary atherosclerosis in the target vessel.

Structure (SMILES) | chest pain, shortness of breath and palpitations (Patient) | HbA1C (Patients) | VLDL cholesterol (Patients) | triglycerides (Patients) | urinary microalbuminuria (Patients) | preventing or reducing atherosclerosis (ultrasound, versus carrier alone) (Humans [1]) | plaque in the atherosclerotic coronary artery (IVUS) (Humans [2])
O=C(CCCCC1CCSS1)Oc1cc2c(cc1[N+](=O)[O-])OCO2 (stereo not shown) [INV-7465, 3,4-Methylenedioxy 6-nitro phenyl lipoate] | improvement | lowering | improvement | decrease | lowering | effective | reduced
CC(=O)Oc1cc2c(cc1[N+](=O)[O-])OCO2 [INV-75, 3,4-methylenedioxy-6-nitrophenyl acetate] | improvement |  | improvement | decrease |  | effective | reduced
O=C(CCCCC1CCSS1)Oc1ccc2c(c1)OCO2 (stereo not shown) [INV-7065, 3,4-Methylenedioxy phenyl lipoate] | improvement | lowering | improvement | decrease | lowering | effective | reduced
